PubChem BioAssay (NCI)
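Abbreviation: GI50, concentration required for 50% inhibition of growth. TGI: concentration producing complete growth inhibition.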

Columns and labels:
Experiment in all cases: NCI anticancer screen, dose series, 384-well format
786-0 renal = system: 786-0 renal
A498 renal = system: A498 renal
A549 NSCLC = system: A549 NSCLC
ACHN renal = system: ACHN renal
BT-549 breast = system: BT-549 breast
CAKI-1 renal = system: CAKI-1 renal
CCRF-CEM leukemia = system: CCRF-CEM leukemia
COLO 205 colon = system: COLO 205 colon
DU-145 prostate = system: DU-145 prostate
EKVX NSCLC = system: EKVX NSCLC
HCC-2998 colon = system: HCC-2998 colon
HCT-116 colon = system: HCT-116 colon
HCT-15 colon = system: HCT-15 colon
HL-60(TB) leukemia = system: HL-60(TB) leukemia
HOP-62 NSCLC = system: HOP-62 NSCLC
HOP-92 NSCLC = system: HOP-92 NSCLC
HS 578T breast = system: HS 578T breast
IGROV1 ovarian = system: IGROV1 ovarian
K-562 leukemia = system: K-562 leukemia
KM12 colon = system: KM12 colon
LOX IMVI melanoma = system: LOX IMVI melanoma
M14 melanoma = system: M14 melanoma
MALME-3M melanoma = system: MALME-3M melanoma
MDA-MB-231 breast = system: MDA-MB-231 breast
MDA-MB-435 melanoma = system: MDA-MB-435 melanoma
MDA-MB-468 breast = system: MDA-MB-468 breast
MOLT-4 leukemia = system: MOLT-4 leukemia
NCI-H226 lung = system: NCI-H226 lung
NCI-H23 lung = system: NCI-H23 lung
NCI-H322M lung = system: NCI-H322M lung
NCI-H460 NSCLC = system: NCI-H460 NSCLC
NCI-H522 lung = system: NCI-H522 lung
NCI/ADR-RES ovarian = system: NCI/ADR-RES ovarian
OVCAR-3 ovarian = system: OVCAR-3 ovarian
OVCAR-4 ovarian = system: OVCAR-4 ovarian
OVCAR-5 ovarian = system: OVCAR-5 ovarian
OVCAR-8 ovarian = system: OVCAR-8 ovarian
PC-3 prostate = system: PC-3 prostate
RPMI-8226 leukemia = system: RPMI-8226 leukemia
RXF 393 renal = system: RXF 393 renal
SF-268 CNS = system: SF-268 CNS
SF-295 CNS = system: SF-295 CNS
SF-539 CNS = system: SF-539 CNS
SK-MEL-2 melanoma = system: SK-MEL-2 melanoma
SK-MEL-28 melanoma = system: SK-MEL-28 melanoma
SK-MEL-5 melanoma = system: SK-MEL-5 melanoma
SK-OV-3 ovarian = system: SK-OV-3 ovarian
SN12C renal = system: SN12C renal
SNB-19 CNS = system: SNB-19 CNS
SNB-75 CNS = system: SNB-75 CNS
SR leukemia = system: SR leukemia
SW-620 colon = system: SW-620 colon
T-47D breast = system: T-47D breast
TK-10 renal = system: TK-10 renal
U251 glioblastoma = system: U251 glioblastoma
UACC-257 melanoma = system: UACC-257 melanoma
UACC-62 melanoma = system: UACC-62 melanoma
UO-31 renal = system: UO-31 renal

CC[C@@]1(O)C(=O)OCc2c1cc1n(c2=O)Cc2c-1nc1cc(F)c(C)c3c1c2[C@@H](NC(=O)CO)CC3
GI50 ([…]-0 renal): < 0.01 µM | TGI (786-0 renal): 0.0101 µM | GI50 (A498 renal): < 0.01 µM | TGI (A498 renal): 0.142 µM | GI50 (A549 NSCLC): 0.0498 µM | TGI (A549 NSCLC): 0.944 µM | GI50 (ACHN renal): < 0.01 µM | TGI (ACHN renal): 0.0111 µM | GI50 (BT-549 breast): < 0.01 µM | TGI (BT-549 breast): 0.0402 µM | GI50 (CAKI-1 renal): < 0.01 µM | TGI (CAKI-1 renal): 0.103 µM | GI50 (CCRF-CEM leukemia): < 0.01 µM | TGI (CCRF-CEM leukemia): < 0.01 µM | GI50 (COLO 205 colon): < 0.01 µM | TGI (COLO 205 colon): 0.537 µM | GI50 (DU-145 prostate): < 0.01 µM | TGI (DU-145 prostate): < 0.01 µM | GI50 (EKVX NSCLC): 0.0429 µM | TGI (EKVX NSCLC): 2.65 µM | GI50 (HCC-2998 colon): 0.0156 µM | TGI (HCC-2998 colon): 0.212 µM | GI50 (HCT-116 colon): < 0.01 µM | TGI (HCT-116 colon): 0.159 µM | GI50 (HCT-15 colon): 0.0175 µM | TGI (HCT-15 colon): 1.18 µM | GI50 (HL-60(TB) leukemia): < 0.01 µM | TGI (HL-60(TB) leukemia): < 0.01 µM | GI50 (HOP-62 NSCLC): < 0.01 µM | TGI (HOP-62 NSCLC): < 0.01 µM | GI50 (HOP-92 NSCLC): < 0.01 µM | TGI (HOP-92 NSCLC): 0.0589 µM | GI50 (HS 578T breast): < 0.01 µM | TGI (HS 578T breast): 2.36 µM | GI50 (IGROV1 ovarian): 0.0128 µM | TGI (IGROV1 ovarian): 1.14 µM | GI50 (K-562 leukemia): < 0.01 µM | TGI (K-562 leukemia): 0.171 µM | GI50 (KM12 colon): 0.0116 µM | TGI (KM12 colon): 0.149 µM | GI50 (LOX IMVI melanoma): < 0.01 µM | TGI (LOX IMVI melanoma): 0.0375 µM | GI50 (M14 melanoma): < 0.01 µM | TGI (M14 melanoma): 0.0128 µM | GI50 (MALME-3M melanoma): < 0.01 µM | TGI (MALME-3M melanoma): 0.237 µM | GI50 (MDA-MB-231 breast): 0.0996 µM | TGI (MDA-MB-231 breast): 1.52 µM | GI50 (MDA-MB-435 melanoma): 0.0243 µM | TGI (MDA-MB-435 melanoma): 0.467 µM | GI50 (MDA-MB-468 breast): < 0.01 µM | TGI (MDA-MB-468 breast): < 0.01 µM | GI50 (MOLT-4 leukemia): < 0.01 µM | TGI (MOLT-4 leukemia): < 0.01 µM | GI50 (NCI-H226 lung): < 0.01 µM | TGI (NCI-H226 lung): 0.0496 µM | GI50 (NCI-H23 lung): < 0.01 µM | TGI (NCI-H23 lung): < 0.01 µM | GI50 (NCI-H322M lung): 0.0542 µM | TGI (NCI-H322M lung): 0.684 µM | GI50 (NCI-H460 NSCLC): < 0.01 µM | TGI (NCI-H460 NSCLC): 0.0234 µM | GI50 (NCI-H522 lung): < 0.01 µM | TGI (NCI-H522 lung): 0.019 µM | GI50 (NCI/ADR-RES ovarian): 0.0536 µM | TGI (NCI/ADR-RES ovarian): 0.256 µM | GI50 (OVCAR-3 ovarian): < 0.01 µM | TGI (OVCAR-3 ovarian): 0.0384 µM | GI50 (OVCAR-4 ovarian): 0.131 µM | TGI (OVCAR-4 ovarian): 0.419 µM | GI50 (OVCAR-5 ovarian): 0.0352 µM | TGI (OVCAR-5 ovarian): 0.268 µM | GI50 (OVCAR-8 ovarian): < 0.01 µM | TGI (OVCAR-8 ovarian): 0.104 µM | GI50 (PC-3 prostate): 0.0973 µM | TGI (PC-3 prostate): 3.88 µM | GI50 (RPMI-8226 leukemia): < 0.01 µM | TGI (RPMI-8226 leukemia): 0.0206 µM | GI50 (RXF 393 renal): < 0.01 µM | TGI (RXF 393 renal): < 0.01 µM | GI50 (SF-268 CNS): < 0.01 µM | TGI (SF-268 CNS): < 0.01 µM | GI50 (SF-295 CNS): < 0.01 µM | TGI (SF-295 CNS): < 0.01 µM | GI50 (SF-539 CNS): < 0.01 µM | TGI (SF-539 CNS): 0.0156 µM | GI50 (SK-MEL-2 melanoma): 0.0331 µM | TGI (SK-MEL-2 melanoma): 0.105 µM | GI50 (SK-MEL-28 melanoma): < 0.01 µM | TGI (SK-MEL-28 melanoma): 0.27 µM | GI50 (SK-MEL-5 melanoma): < 0.01 µM | TGI (SK-MEL-5 melanoma): 0.0164 µM | GI50 (SK-OV-3 ovarian): < 0.01 µM | TGI (SK-OV-3 ovarian): 0.0281 µM | GI50 (SN12C renal): < 0.01 µM | TGI (SN12C renal): < 0.01 µM | GI50 (SNB-19 CNS): < 0.01 µM | TGI (SNB-19 CNS): 0.0127 µM | GI50 (SNB-75 CNS): < 0.01 µM | TGI (SNB-75 CNS): 0.0108 µM | GI50 (SR leukemia): < 0.01 µM | TGI (SR leukemia): < 0.01 µM | GI50 (SW-620 colon): < 0.01 µM | TGI (SW-620 colon): 0.223 µM | GI50 (T-47D breast): < 0.01 µM | TGI (T-47D breast): 0.101 µM | GI50 (TK-10 renal): 0.0476 µM | TGI (TK-10 renal): 1.66 µM | GI50 (U251 glioblastoma): < 0.01 µM | TGI (U251 glioblastoma): 0.0136 µM | GI50 (UACC-257 melanoma): 0.0194 µM | TGI (UACC-257 melanoma): 0.226 µM | GI50 (UACC-62 melanoma): < 0.01 µM | TGI (UACC-62 melanoma): < 0.01 µM | GI50 (UO-31 renal): 0.0206 µM | TGI (UO-31 renal): 0.116 µM
